Assay results reported in patent publication US10696615B2, “Prenylated hydroxystilbenes” (The University of Sydney, priority 2011, dated 2020).
≈ marks a conversion by molar mass, not a printed value. Where two headings read alike, the source gives them in different places.

Columns and labels:
MRSA = assay: MIC screening, broth microdilution (CLSI)
Method: The MICs were determined by the broth microdilution method according to the Clinical and Laboratory Standards Institute (CLSI) guidelines. The MIC screening was performed on 96-well plates containing the compounds in serial 2-fold dilutions from 64 to 0.06 μg/ml. The bacterial inoculations were prepared in cation-adjusted Mueller Hinton medium broth from cultures grown on appropriate agar plates which are prepared freshly every week. The growth controls and sterile controls were included in each assay plates. The assay plates were incubated in an ambient-air incubator at 35±2° C. for 16-20 hr (24 hr for MRSA), and bacterial growth was observed and recorded.
(§1) A. Revive bacterial strains from storage frozen (−80° C.) two days before the MIC screening. Streak onto surface of appropriate agar plates, and incubate the plates for 20-24 hr at 35±2° C. in an appropriate atmosphere.
(§2) B. Select 5-10 well-isolated colonies of similar morphology and restreak onto fresh agar plates using sterile loops. Incubate the plates for 20-24 hr at 35±2° C. in an appropriate atmosphere as above.
(§3) Compound stock solutions were prepared in 100% DMSO on the day of MIC screening and use immediately. Compound stock concentration=[(highest testing concentration)×103 μl/3 μl] (e.g. if the required highest testing concentration is 64 μg/ml in assay plates, stock concentration=64×103/3=2.2 mg/ml). The potency of testing compound is assumed as 100% unless otherwise stated whereas the potency of reference compound is calculated according to manufacturer's analysis data.
(§4) Eleven two-fold dilutions per compound were made then transferred 3 μl to each well of test plate. Final concentration of DMSO in the MIC screening is ˜3%.
(§5) B. Transfer colonies from fresh culture plates into 5 ml of saline with sterile loops and mix well. Measure and adjust turbidity to 0.5 McFarland barium sulphate standard using a turbidity meter. Alternatively, transfer 1-2 colonies into 500 μl of saline and adjust OD625 to ˜0.1 using a plate reader. […] Dilute bacterial inoculum 1:280 for Gram-positive and fastidious strains and 1:400 for Gram-negative strains into corresponding medium broth (CAMHB, CAMHB+3% lysed horse blood, HTM) (e.g. 35.6 μl of inoculum into 10 ml of CAMHB or 25 μl of inoculum into 10 ml of CAMHB). H. influenzae: HTM Streptococci: CAMHB+3% lysed horse blood Other strains in the panel: CAMHB 2.4. Prepare Assay Plates A. Add 100 μl of the bacterial inoculum to each well of the compound plates except wells B12, D12, F12 and H12. B. Add 100 μl of medium broth to wells B12, D12, F12 and H12 of the compound plates. […] Stack four plates together and cover with a sterile plate lid. Incubate in an ambient-air incubator at 35±2° C. for 16-20 hours (24 hours for MRSA). […] Perform Colony Counts A. Dilute the bacterial inoculum (0.5 McFarland) to a serial of 10-1 to 10-7 in saline solution (e.g. 100 μl bacterial inoculum+900 μl of saline). B. Spread 100 μl of each dilution (10-4, 10-5, 10-6, and 10-7) onto CAMHA plates in triplication, let the liquid soak into the agar for 10 minutes, invert the agar plates and incubate for 24 hr at 35±2° C. […] Record MICs and Calculate CFUs A. Open the compound plate layout in the compound management system, and check the assay plate barcode. B. Place the assay plate on the top of MIC reader, and adjust the magnification mirror to read each wells, record growth status as raw data. (Optional) Record photo image of each assay plates using high-speed high-resolution scanner. […] Determine MIC break points according to CLSI guideline. D. Count colonies and calculate CFU of bacterial inoculum.

Streptococci = assay: MIC screening, broth microdilution (CLSI)
Method: (§6) The minimum inhibition concentration (MIC) screening was performed with 14 bacterial strains and 4 compounds. The MICs were determined by the broth microdilution method according to the Clinical and Laboratory Standards Institute (CLSI) guidelines. The MIC screening was performed on 96-well plates containing the compounds in serial 2-fold dilutions from 64 to 0.06 μg/ml. The bacterial inoculations were prepared in cation-adjusted Mueller Hinton medium broth from cultures grown on appropriate agar plates which are prepared freshly every week. The growth controls and sterile controls were included in each assay plates. The assay plates were incubated in an ambient-air incubator at 35±2° C. for 16-20 hr (24 hr for MRSA), and bacterial growth was observed and recorded.
as §1
Streptococci: TSA II, 5% CO2
as §2, §3, §4, §5

Enterococci = assay: MIC screening, broth microdilution (CLSI)
Method: as §6, §1
Enterococci: TSA II, ambient air
as §2, §3, §4
B. Transfer colonies from fresh culture plates into 5 ml of saline with sterile loops and mix well. Measure and adjust turbidity to 0.5 McFarland barium sulphate standard using a turbidity meter. Alternatively, transfer 1-2 colonies into 500 μl of saline and adjust OD625 to ˜0.1 using a plate reader. C. Dilute bacterial inoculum 1:280 for Gram-positive and fastidious strains and 1:400 for Gram-negative strains into corresponding medium broth (CAMHB, CAMHB+3% lysed horse blood, HTM) (e.g. 35.6 μl of inoculum into 10 ml of CAMHB or 25 μl of inoculum into 10 ml of CAMHB). H. influenzae: HTM Streptococci: CAMHB+3% lysed horse blood Other strains in the panel: CAMHB 2.4. Prepare Assay Plates A. Add 100 μl of the bacterial inoculum to each well of the compound plates except wells B12, D12, F12 and H12. B. Add 100 μl of medium broth to wells B12, D12, F12 and H12 of the compound plates. C. Stack four plates together and cover with a sterile plate lid. Incubate in an ambient-air incubator at 35±2° C. for 16-20 hours (24 hours for MRSA). […] Perform Colony Counts A. Dilute the bacterial inoculum (0.5 McFarland) to a serial of 10-1 to 10-7 in saline solution (e.g. 100 μl bacterial inoculum+900 μl of saline). B. Spread 100 μl of each dilution (10-4, 10-5, 10-6, and 10-7) onto CAMHA plates in triplication, let the liquid soak into the agar for 10 minutes, invert the agar plates and incubate for 24 hr at 35±2° C. […] Record MICs and Calculate CFUs A. Open the compound plate layout in the compound management system, and check the assay plate barcode. B. Place the assay plate on the top of MIC reader, and adjust the magnification mirror to read each wells, record growth status as raw data. (Optional) Record photo image of each assay plates using high-speed high-resolution scanner. C. Determine MIC break points according to CLSI guideline. D. Count colonies and calculate CFU of bacterial inoculum.

Haemophilus influenzae = assay: MIC screening, broth microdilution (CLSI)
Method: as §6, §1
Haemophilus influenzae: chocolate agar, 5% CO2
as §2, §3, §4, §5

[1] = system: Acinetobacter calcoaceticus; assay: MIC screening, broth microdilution (CLSI)
Method: as §6, §3, §4, §5

Escherichia coli = assay: MIC screening, broth microdilution (CLSI)
Method: as §6, §3, §4, §5

Klebsiella pneumoniae = assay: MIC screening, broth microdilution (CLSI)
Method: as §6, §3, §4, §5

Pseudomonas aeruginosa = assay: MIC screening, broth microdilution (CLSI)
Method: as §6, §3, §4, §5

Staphylococcus aureus = assay: MIC screening, broth microdilution (CLSI)
Method: as §6, §3, §4, §5

[2] = background statement; cited from earlier work

C[C@H]1COc2c(N3CCN(C)CC3)c(F)cc3c(=O)c(C(=O)O)cn1c23 [Levofloxacin, reference compound]
MIC (MRSA; Staphylococcus aureus (ATCC 43300), Exp 2): 0.25 µg/mL (≈ 0.692 µM)
MIC (MRSA; Staphylococcus aureus (MRSA, Erythromycin & clindamycin-resistant), Exp 2): 8 µg/mL (≈ 22.1 µM)
MIC (MRSA; Staphylococcus aureus, ATCC43300 / MRSA): 0.25 µg/mL (≈ 0.692 µM)
MIC (MRSA; Staphylococcus aureus, MRSA): 8 µg/mL (≈ 22.1 µM)
MIC (Streptococci; Streptococcus pneumoniae, ATCC49619, Streptococcus pneumoniae (ATCC 49619), Exp 1): 0.5 µg/mL (≈ 1.38 µM)
MIC (Streptococci; Streptococcus pneumoniae, ATCC49619, Streptococcus pneumoniae (ATCC 49619), Exp 2): 0.5 µg/mL (≈ 1.38 µM)
MIC (Streptococci; Streptococcus pneumoniae, Streptococcus pneumoniae (Erythromycin-resistant), Exp 1): 1 µg/mL (≈ 2.77 µM)
MIC (Streptococci; Streptococcus pneumoniae, Streptococcus pneumoniae (Erythromycin-resistant), Exp 2): 1 µg/mL (≈ 2.77 µM)
MIC (Streptococci; Streptococcus pyogenes, ATCC700942, Streptococcus pyogenes (ATCC 700942), Exp 1): 0.5 µg/mL (≈ 1.38 µM)
MIC (Streptococci; Streptococcus pyogenes, ATCC700942, Streptococcus pyogenes (ATCC 700942), Exp 2): 0.5 µg/mL (≈ 1.38 µM)
MIC (Enterococci; Enterococcus faecalis, ATCC29212, Enterococcus faecalis (ATCC 29212), Exp 1): 1 µg/mL (≈ 2.77 µM)
MIC (Enterococci; Enterococcus faecalis, ATCC29212, Enterococcus faecalis (ATCC 29212), Exp 2): 1 µg/mL (≈ 2.77 µM)
MIC (Enterococci; Enterococcus faecium, ATCC700221, Enterococcus faecium (ATCC 700221), Exp 1): > 64 µg/mL
MIC (Enterococci; Enterococcus faecium, ATCC700221, Enterococcus faecium (ATCC 700221), Exp 2): > 64 µg/mL
MIC (Haemophilus influenzae): < 0.0625 µg/mL
MIC (Haemophilus influenzae; Exp 2): <0.0625 µg/mL
MIC [1]: 4 µg/mL (≈ 11.1 µM)
MIC ([1]; Exp 2): 4 µg/mL (≈ 11.1 µM)
MIC (Escherichia coli; Exp 1): < 0.0625 µg/mL
MIC (Escherichia coli; Exp 2): < 0.0625 µg/mL
MIC (Klebsiella pneumoniae): 1 µg/mL (≈ 2.77 µM)
MIC (Klebsiella pneumoniae; Exp 2): 1 µg/mL (≈ 2.77 µM)
MIC (Pseudomonas aeruginosa): 1 µg/mL (≈ 2.77 µM)
MIC (Pseudomonas aeruginosa; Exp 2): 1 µg/mL (≈ 2.77 µM)
MIC (Staphylococcus aureus; ATCC29213, Staphylococcus aureus (ATCC 29213), Exp 1): 0.5 µg/mL (≈ 1.38 µM)
MIC (Staphylococcus aureus; ATCC29213, Staphylococcus aureus (ATCC 29213), Exp 2): 0.25 µg/mL (≈ 0.692 µM)
MIC (Staphylococcus aureus; Staphylococcus aureus (Levofloxacin-resistant), Exp 1): 64 µg/mL (≈ 177 µM)
MIC (Staphylococcus aureus; Staphylococcus aureus (Levofloxacin-resistant), Exp 2): 64 µg/mL (≈ 177 µM)

Oc1ccc(/C=C/c2cc(O)cc(O)c2)cc1 [Resveratrol]
oral bioavailability [2]: very poor oral bioavailability
